Reference: US11197914B2, “GLP-1R/GCGR dual target agonist polypeptide for treatment of fatty liver diseases, hyperlipemia and arteriosclerosis” (Shenzhen Turier Biotech Co., Ltd., priority 2016, dated 2021)
*1 amine or outer side, *2 acyl side, *3 side chain or, on linkers, in order; H or OH if unused. Primed or numbered codes have the meaning given here. Where no end group is shown, it is not given here. Side-chain parts run from the residue outwards. [ ]: non-standard residue; d: D form. The star is where a group is joined. C18 diacid = O=C(O)CCCCCCCCCCCCCCCCC(=O)*; C16 diacid = O=C(O)CCCCCCCCCCCCCCC(=O)*; γGlu = O=C(O)[C@H](CCC(=O)[*:2])N[*:1]; Stearoyl = CCCCCCCCCCCCCCCCCC(=O)*; Palmitoyl = CCCCCCCCCCCCCCCC(=O)*; Nle = CCCC[C@H](N)C(=O)O; PEG2′ = not defined here; Aib = CC(C)(N)C(=O)O

Tested on: Hepatic stellate cell strain LX-2
Experiment: In vitro inhibition of hepatic fibrosis: expression of LX-2 cell activation marker α-SMA (Western Blot, α-SMA/β-actin)
Assay type: cell-based, human
Details: LX-2 cells; for Relative expression of α-SMA (α-SMA/β-actin, %): 48 hours, negative control = 100%
Protocol: Hepatic stellate cell strain LX-2 was selected to study and observe the effect of different doses of test substances on the expression of LX-2 cell activation marker […]. Hepatic stellate cell LX-2 was laid on 35 mm cell culture plate, cultured with DMEM (high glucose)+10% FBS+1% double-antibody culture medium (Thermo Fisher), placed overnight when the cells grew to 70% convergence at 37° C. and under the condition of 5% CO2, and treated with the above compounds 1-37 (dissolved in PBS) for 48 hours the next day morning to extract cell protein, carry out Western Blot, and take β-actin as internal reference and analyze the expression quantities of α-SMA and β-actin by a gray level of Image J 1.50i. PBS with the same volume as that in experimental group was added in negative control. […] The integrating gray level of α-SMA/β-actin in the negative control group was 100% to analyze the in vitro inhibition activity of hepatic fibrosis of tested polypeptide.

| Substance | Relative expression of α-SMA (α-SMA/β-actin, %) (1 μM) [%] | further results |
| --- | --- | --- |
| His-(D-Ser)-Gln-Gly-Thr-Phe-Thr-Ser-Asp-Tyr-Ser-Lys-Tyr-Leu-Asp-Glu-Lys-Ala-Ala-Lys(PEG2-PEG2-γGlu-CO(CH2)14CO2H)-Glu-Phe-Ile-Glu-Trp-Leu-Leu-Asn-Gly-Gly-Pro-Ser-Ser-Gly-Ala-Pro-Pro-Pro-Ser-NH2 (H[dS]QGTFTSDYSKYLDEKAAK([PEG2′-PEG2′-γGlu-C16 diacid])EFIEWLLNGGPSSGAPPPS-NH2) [Compound 27] | 92.34 | – |
| His-(D-Ser)-Gln-Gly-Thr-Phe-Thr-Ser-Asp-Tyr-Ser-Lys-Tyr-Leu-Asp-Glu-Lys-Ala-Ala-Lys(PEG2-PEG2-γGlu-CO(CH2)16CH3)-Glu-Phe-Ile-Glu-Trp-Leu-Leu-Arg-Ala-NH2 (H[dS]QGTFTSDYSKYLDEKAAK([PEG2′-PEG2′-γGlu-Stearoyl])EFIEWLLRA-NH2) [Compound 24] | 82.42 | – |
| His-(D-Ser)-Gln-Gly-Thr-Phe-Thr-Ser-Asp-Tyr-Ser-Lys-Tyr-Leu-Asp-Glu-Lys-Ala-Ala-Lys(PEG2-PEG2-γGlu-CO(CH2)16CH3)-Glu-Phe-Ile-Glu-Trp-Leu-Leu-Asn-Gly-Gly-Pro-Ser-Ser-Gly-Ala-Pro-Pro-Pro-Ser-NH2 (H[dS]QGTFTSDYSKYLDEKAAK([PEG2′-PEG2′-γGlu-Stearoyl])EFIEWLLNGGPSSGAPPPS-NH2) [Compound 28] | 87.62 | – |
| His-(D-Ser)-Gln-Gly-Thr-Phe-Thr-Ser-Asp-Tyr-Ser-Lys-Tyr-Leu-Asp-Glu-Lys-Ala-Ala-Lys(PEG2-PEG2-γGlu-CO(CH2)16CO2H)-Glu-Phe-Ile-Glu-Trp-Leu-Leu-Arg-Ala-NH2 (H[dS]QGTFTSDYSKYLDEKAAK([PEG2′-PEG2′-γGlu-C18 diacid])EFIEWLLRA-NH2) [Compound 18] | 75.60 | – |
| His-(D-Ser)-Gln-Gly-Thr-Phe-Thr-Ser-Asp-Tyr-Ser-Lys-Tyr-Leu-Asp-Glu-Lys-Ala-Ala-Lys(PEG2-PEG2-γGlu-CO(CH2)16CO2H)-Glu-Phe-Ile-Glu-Trp-Leu-Leu-Asn-Gly-Gly-Pro-Ser-Ser-Gly-Ala-Pro-Pro-Pro-Ser-NH2 (H[dS]QGTFTSDYSKYLDEKAAK([PEG2′-PEG2′-γGlu-C18 diacid])EFIEWLLNGGPSSGAPPPS-NH2) [Compound 26] | 94.44 | – |
| His-(D-Ser)-Gln-Gly-Thr-Phe-Thr-Ser-Asp-Tyr-Ser-Lys-Tyr-Leu-Asp-Lys(PEG2-PEG2-CO(CH2)16CO2H)-Arg-Arg-Ala-Gln-Asp-Phe-Val-Gln-Trp-Leu-Met-Asn-Thr-Gly-Gly-Pro-Ser-Ser-Gly-Ala-Pro-Pro-Pro-Ser-NH2 (H[dS]QGTFTSDYSKYLDK([PEG2′-PEG2′-C18 diacid])RRAQDFVQWLMNTGGPSSGAPPPS-NH2) [Compound 35] | 61.28 | Inhibition of LX-2 cell activation marker α-SMA (in words, from Table 2): obviously reduce |
| His-(D-Ser)-Gln-Gly-Thr-Phe-Thr-Ser-Asp-Tyr-Ser-Lys-Tyr-Leu-Asp-Lys(PEG2-PEG2-γGlu-CO(CH2)14CH3)-Arg-Arg-Ala-Gln-Asp-Phe-Val-Gln-Trp-Leu-Nle-Asn-Thr-Gly-Gly-Pro-Ser-Ser-Gly-Ala-Pro-Pro-Pro-Ser-NH2 (H[dS]QGTFTSDYSKYLDK([PEG2′-PEG2′-γGlu-Palmitoyl])RRAQDFVQWL[Nle]NTGGPSSGAPPPS-NH2) [Compound 37] | 42.45 | – |
| His-(D-Ser)-Gln-Gly-Thr-Phe-Thr-Ser-Asp-Tyr-Ser-Lys-Tyr-Leu-Asp-Lys(PEG2-PEG2-γGlu-CO(CH2)16CH3)-Arg-Arg-Ala-Gln-Asp-Phe-Val-Gln-Trp-Leu-Met-Asn-Thr-Gly-Gly-Pro-Ser-Ser-Gly-Ala-Pro-Pro-Pro-Ser-NH2 (H[dS]QGTFTSDYSKYLDK([PEG2′-PEG2′-γGlu-Stearoyl])RRAQDFVQWLMNTGGPSSGAPPPS-NH2) [Compound 36] | 62.49 | Inhibition of LX-2 cell activation marker α-SMA (in words, from Table 2): obviously reduce |
| His-(D-Ser)-Gln-Gly-Thr-Phe-Thr-Ser-Asp-Tyr-Ser-Lys-Tyr-Leu-Asp-Lys(PEG2-PEG2-γGlu-CO(CH2)16CO2H)-Arg-Arg-Ala-Gln-Asp-Phe-Val-Gln-Trp-Leu-Met-Asn-Thr-Gly-Gly-Pro-Ser-Ser-Gly-Ala-Pro-Pro-Pro-Ser-NH2 (H[dS]QGTFTSDYSKYLDK([PEG2′-PEG2′-γGlu-C18 diacid])RRAQDFVQWLMNTGGPSSGAPPPS-NH2) [Compound 34] | 88.18 | – |
| His-(D-Ser)-Gln-Gly-Thr-Phe-Thr-Ser-Asp-Tyr-Ser-Lys-Tyr-Leu-Asp-Ser-Lys(PEG2-PEG2-γGlu-CO(CH2)16CH3)-Ala-Ala-His-Asp-Phe-Val-Glu-Trp-Leu-Leu-Arg-Ala-NH2 (H[dS]QGTFTSDYSKYLDSK([PEG2′-PEG2′-γGlu-Stearoyl])AAHDFVEWLLRA-NH2) [Compound 25] | 93.34 | – |
| His-(D-Ser)-Gln-Gly-Thr-Phe-Thr-Ser-Asp-Tyr-Ser-Lys-Tyr-Leu-Asp-Ser-Lys(PEG2-PEG2-γGlu-CO(CH2)16CO2H)-Ala-Ala-His-Asp-Phe-Val-Glu-Trp-Leu-Leu-Arg-Ala-NH2 (H[dS]QGTFTSDYSKYLDSK([PEG2′-PEG2′-γGlu-C18 diacid])AAHDFVEWLLRA-NH2) [Compound 17] | 75.38 | – |
| His-(D-Ser)-Gln-Gly-Thr-Phe-Thr-Ser-Asp-Tyr-Ser-Lys-Tyr-Leu-Asp-Ser-Lys(PEG2-PEG2-γGlu-CO(CH2)16CO2H)-Ala-Ala-His-Asp-Phe-Val-Glu-Trp-Leu-Leu-Asn-Gly-Gly-Pro-Ser-Ser-Gly-Ala-Pro-Pro-Pro-Ser-NH2 (H[dS]QGTFTSDYSKYLDSK([PEG2′-PEG2′-γGlu-C18 diacid])AAHDFVEWLLNGGPSSGAPPPS-NH2) [Compound 21] | 97.66 | – |
| His-Aib-Gln-Gly-Thr-Phe-Thr-Ser-Asp-Lys(PEG2-PEG2-γGlu-CO(CH2)14CH3)-Ser-Lys-Tyr-Leu-Asp-Aib-Arg-Arg-Ala-Gln-Asp-Phe-Val-Gln-Trp-Leu-Leu-Asp-Gly-Gly-Pro-Ser-Ser-Gly-Ala-Pro-Pro-Pro-Ser-NH2 (H[Aib]QGTFTSDK([PEG2′-PEG2′-γGlu-Palmitoyl])SKYLD[Aib]RRAQDFVQWLLDGGPSSGAPPPS-NH2) [Compound 8] | 80.25 | – |
| His-Aib-Gln-Gly-Thr-Phe-Thr-Ser-Asp-Lys(PEG2-PEG2-γGlu-CO(CH2)14CH3)-Ser-Lys-Tyr-Leu-Asp-Glu-Arg-Arg-Ala-Gln-Asp-Phe-Val-Gln-Trp-Leu-Leu-Asp-Gly-Gly-Pro-Ser-Ser-Gly-Ala-Pro-Pro-Pro-Ser-NH2 (H[Aib]QGTFTSDK([PEG2′-PEG2′-γGlu-Palmitoyl])SKYLDERRAQDFVQWLLDGGPSSGAPPPS-NH2) [Compound 16] | 48.88 | Inhibition of LX-2 cell activation marker α-SMA (in words, from Table 2): obviously reduce; Effect on expression of α-SMA (in words) (0.1 μM, 1 μM and 5 μM): reduce the expression of α-SMA under all concentrations; Relative expression of α-SMA (α-SMA/β-actin, %) (0.1 μM): 65.32%; Relative expression of α-SMA (α-SMA/β-actin, %) (5 μM): 40.35% |
| His-Aib-Gln-Gly-Thr-Phe-Thr-Ser-Asp-Lys(PEG2-PEG2-γGlu-CO(CH2)14CO2H)-Ser-Lys-Tyr-Leu-Asp-Aib-Arg-Arg-Ala-Gln-Asp-Phe-Val-Gln-Trp-Leu-Leu-Asp-Gly-Gly-Pro-Ser-Ser-Gly-Ala-Pro-Pro-Pro-Ser-NH2 (H[Aib]QGTFTSDK([PEG2′-PEG2′-γGlu-C16 diacid])SKYLD[Aib]RRAQDFVQWLLDGGPSSGAPPPS-NH2) [Compound 11] | 96.78 | – |
| His-Aib-Gln-Gly-Thr-Phe-Thr-Ser-Asp-Lys(PEG2-PEG2-γGlu-CO(CH2)14CO2H)-Ser-Lys-Tyr-Leu-Asp-Glu-Arg-Arg-Ala-Gln-Asp-Phe-Val-Gln-Trp-Leu-Leu-Asp-Gly-Gly-Pro-Ser-Ser-Gly-Ala-Pro-Pro-Pro-Ser-NH2 (H[Aib]QGTFTSDK([PEG2′-PEG2′-γGlu-C16 diacid])SKYLDERRAQDFVQWLLDGGPSSGAPPPS-NH2) [Compound 13] | 97.93 | – |
| His-Aib-Gln-Gly-Thr-Phe-Thr-Ser-Asp-Lys(PEG2-PEG2-γGlu-CO(CH2)16CH3)-Ser-Lys-Tyr-Leu-Asp-Aib-Arg-Arg-Ala-Gln-Asp-Phe-Val-Gln-Trp-Leu-Leu-Asp-Gly-Gly-Pro-Ser-Ser-Gly-Ala-Pro-Pro-Pro-Ser-NH2 (H[Aib]QGTFTSDK([PEG2′-PEG2′-γGlu-Stearoyl])SKYLD[Aib]RRAQDFVQWLLDGGPSSGAPPPS-NH2) [Compound 12] | 72.99 | – |
| His-Aib-Gln-Gly-Thr-Phe-Thr-Ser-Asp-Lys(PEG2-PEG2-γGlu-CO(CH2)16CH3)-Ser-Lys-Tyr-Leu-Asp-Glu-Arg-Arg-Ala-Gln-Asp-Phe-Val-Gln-Trp-Leu-Leu-Asp-Gly-Gly-Pro-Ser-Ser-Gly-Ala-Pro-Pro-Pro-Ser-NH2 (H[Aib]QGTFTSDK([PEG2′-PEG2′-γGlu-Stearoyl])SKYLDERRAQDFVQWLLDGGPSSGAPPPS-NH2) [Compound 14] | 92.80 | – |
